Laboratory results as given in patent US9999659B2, “Treatments using a peptide and/or vaccine” (AFFIRIS AG, priority 2012, dated 2018).
No end group written: not given here.

Columns and labels:
[1] = system: polyclonal antibodies in mouse sera raised against original PCSK9 sequence (aa 153-162 or aa 153-165); assay: Competition ELISA: mimotope competes with the original PCSK9 sequence for binding of polyclonal antibodies in mouse sera; conditions: 20 μg peptide incubated with sera; irrelevant peptide = 0% competition
Excerpt: FIGS. 2A and 2B show the ability of PCSK9 mimotopes to compete with the original PCSK9 sequence (aa 153-162 or aa 153-165) for binding polyclonal antibodies in mouse sera raised specifically against the latter.
All mimotopes are compared to the negative group (0% competition by an irrelevant peptide). As a positive control for each competition ELISA the original PCSK9 sequences were used (aa 153-162 or aa 153-165).
The graphs display the ability (in percent) of the mimotopes to compete with the original PCSK9 sequence (aa 153-162 or aa 153-165) for binding polyclonal antibodies raised against the latter.
20 μg of each indicated peptide was incubated with sera from mice injected with original PCSK9 sequence (aa 153-162 or aa 153-165: SEQ ID No. 2). Sera were then incubated on ELISA plates coated with the original PCSK9 sequence (aa 153-162 or aa 153-165: SEQ ID No. 2). Detection was performed with anti-mouse IgG antibodies, ABTS was used as a chromogenic substrate and optical density (OD) was measured at 405 nm.
Mimotopes diminishing >20% subsequent binding of the polyclonal antibodies from the sera to the original human PCSK9 epitope (aa 153-162 or 153-165: SEQ ID No. 3) coated on the ELISA plates were considered as competing mimotopes and as good candidates.

[2] = system: polyclonal antibodies specific for human PCSK9 aa 153-162 or aa 153-165; assay: Binding ELISA: mimotopes coated on plates, detected by mouse sera raised against the original PCSK9 sequence; conditions: mimotope coated at 1 μmol/mL; titer = serum dilution where 50% of ODmax is reached
Excerpt: FIGS. 1A and 1B show detection of PCSK9 mimotopes sequences by mouse sera containing polyclonal antibodies specific for human PCSK9 aa 153-162 or aa 153-165
The graphs display median titers from all mimotopes compared to the irrelevant negative control. As a positive control the original human PCSK9 sequence is included: aa 153-162 or aa 153-165. Mimotopes with values over 1:50.000 are considered as good candidates.
Mimotopes were coated on ELISA plates at a concentration of 1 μmol/mL. After blocking unspecific binding (1% BSA in PBS) appropriate dilutions of sera from mice injected with the original human PCSK9 sequence aa 153-162 or aa 153-165 (SEQ ID No. 3) were added and incubated for approximately 1 hour. Subsequently, detection with anti-mouse IgG antibodies was performed. ABTS was used as substrate. OD measurements were performed at 405 nm and titers were defined as the dilution of the serum where 50% of the ODmax is reached.

Balb/c mice = assay: Total cholesterol assay in immunized mice; type: in vivo, mouse
Experimental: The peptides were conjugated via the heterobifunctional linker GMBS (4-Maleimidobutyric acid N-hydroxysuccinimide ester) to KLH (Keyhole Limpet Hemocyanin).
5 Balb/c mice were subcutaneously immunized. Mice had access to food and water ad libitum and were kept under a 12 h light/dark cycle. The age of mice at the beginning of experiments was 8 to 10 weeks.
Mice were injected four times in 2 week intervals with 15 μg of net peptide coupled to KLH and adsorbed to Alhydrogel as adjuvant in a volume of 1 ml in total.
Blood was taken approximately 2 weeks after the final injection.
Total cholesterol was measured with the LabAssay™ Cholesterol Kit (Wako).
For this purpose mice have been immunized with HPLC purified peptides coupled to KLH and formulated with an adjuvant (Alum) as vaccines (Sequence-KLH/Alum). In the first experiment, a direct comparison between the original PCSK9 sequence and the novel sequence […] has been performed. Here, mice have been immunized with irrelevant peptide vaccine (irrelevant peptide-KLH/Alum) as a negative control group, original PCSK9 sequence vaccine ([…]-KLH/Alum) and the novel sequence vaccine ([…]-KLH/Alum). The latter group ([…]-KLH/Alum) has been used not only to compare its functionality of the induced antibodies to the functionality of the antibodies generated using the original PCSK9 sequence vaccine ([…]-KLH/Alum), but also as a bridging group between different experiments.
Subsequently, a second experiment has been performed wherein mice have been immunized with irrelevant peptide as a negative control group and all the three novel sequences […], […] and […], all coupled to KLH and formulated as vaccines. As it has been already mentioned above, the mice immunized with the novel sequence ([…]-KLH/Alum) have been used as a bridging group between the experiments. In fact, the bridging group injected with the novel sequence ([…]-KLH/Alum) is behaving in a similar way in both experiments (FIGS. 5A, 5B, 6A and 6B) and most importantly, all three groups immunized with vaccines containing one of the sequences […], […] or […] behave in a very similar way in terms of reduction of plasma total cholesterol levels (FIGS. 6A and 6B).

50 (SIPWNLERITPPK; Artificial Sequence, Mimotope) [compound 50]
% Competition compared to the related control group [1]: 66% | Median Titer Binding ELISA (ODmax/2) [2]: 158,000

51 (SIPWNLERITPPS; Artificial Sequence, Mimotope) [compound 51]
% Competition compared to the related control group [1]: 66% | Median Titer Binding ELISA (ODmax/2) [2]: 149,000

52 (SIPWNLERITPPL; Artificial Sequence, Mimotope) [compound 52]
% Competition compared to the related control group [1]: 66% | Median Titer Binding ELISA (ODmax/2) [2]: 139,000

53 (VIPWNLERLT; Artificial Sequence, Mimotope) [compound 53]
% Competition compared to the related control group [1]: 54% | Median Titer Binding ELISA (ODmax/2) [2]: 191,000

54 (VIPWNLERTT; Artificial Sequence, Mimotope) [compound 54]
% Competition compared to the related control group [1]: 69% | Median Titer Binding ELISA (ODmax/2) [2]: 162,000

55 (VIPWNLERIL; Artificial Sequence, Mimotope) [compound 55]
% Competition compared to the related control group [1]: 49% | Median Titer Binding ELISA (ODmax/2) [2]: 173,000

56 (VIPWNLERIQ; Artificial Sequence, Mimotope) [compound 56]
% Competition compared to the related control group [1]: 47% | Median Titer Binding ELISA (ODmax/2) [2]: 166,000

57 (SVPWNLERLT; Artificial Sequence, Mimotope) [compound 57]
% Competition compared to the related control group [1]: 57% | Median Titer Binding ELISA (ODmax/2) [2]: 154,000

58 (SVPWNLERTT; Artificial Sequence, Mimotope) [compound 58]
% Competition compared to the related control group [1]: 73% | Median Titer Binding ELISA (ODmax/2) [2]: 116,000

59 (SVPWNLERIL; Artificial Sequence, Mimotope) [compound 59]
% Competition compared to the related control group [1]: 59% | Median Titer Binding ELISA (ODmax/2) [2]: 188,000

60 (SVPWNLERIQ; Artificial Sequence, Mimotope) [compound 60]
% Competition compared to the related control group [1]: 61% | Median Titer Binding ELISA (ODmax/2) [2]: 222,000

61 (SQPWNLERLT; Artificial Sequence, Mimotope) [compound 61]
% Competition compared to the related control group [1]: 69% | Median Titer Binding ELISA (ODmax/2) [2]: 200,000

62 (SQPWNLERIL; Artificial Sequence, Mimotope) [compound 62]
% Competition compared to the related control group [1]: 69% | Median Titer Binding ELISA (ODmax/2) [2]: 196,000

63 (SQPWNLERIQ; Artificial Sequence, Mimotope) [compound 63]
% Competition compared to the related control group [1]: 66% | Median Titer Binding ELISA (ODmax/2) [2]: 167,000

64 (SIPWSLERLT; Artificial Sequence, Mimotope) [compound 64]
% Competition compared to the related control group [1]: 46% | Median Titer Binding ELISA (ODmax/2) [2]: 164,000

65 (SIPWSLERTT; Artificial Sequence, Mimotope) [compound 65]
% Competition compared to the related control group [1]: 64% | Median Titer Binding ELISA (ODmax/2) [2]: 147,000

66 (SIPWSLERIL; Artificial Sequence, Mimotope) [compound 66]
% Competition compared to the related control group [1]: 46% | Median Titer Binding ELISA (ODmax/2) [2]: 199,000

67 (SIPWSLERIQ; Artificial Sequence, Mimotope) [compound 67]
% Competition compared to the related control group [1]: 44% | Median Titer Binding ELISA (ODmax/2) [2]: 223,000

68 (VQPWSLERTL; Artificial Sequence, Mimotope) [compound 68]
% Competition compared to the related control group [1]: 48% | Median Titer Binding ELISA (ODmax/2) [2]: 95,000

69 (SQPWSLERTL; Artificial Sequence, Mimotope) [compound 69]
% Competition compared to the related control group [1]: 53% | Median Titer Binding ELISA (ODmax/2) [2]: 98,000

70 (SVPWNLEKLT; Artificial Sequence, Mimotope) [compound 70]
% Competition compared to the related control group [1]: 11% | Median Titer Binding ELISA (ODmax/2) [2]: 47,000

71 (VQPWNLERLQ; Artificial Sequence, Mimotope) [compound 71]
% Competition compared to the related control group [1]: 72% | Median Titer Binding ELISA (ODmax/2) [2]: 184,000

72 (VQPWSLERLL; Artificial Sequence, Mimotope) [compound 72]
% Competition compared to the related control group [1]: 66% | Median Titer Binding ELISA (ODmax/2) [2]: 166,000

73 (SVPWSLERLT; Artificial Sequence, Mimotope) [compound 73]
% Competition compared to the related control group [1]: 74% | Median Titer Binding ELISA (ODmax/2) [2]: 251,000

SIPWSLERIT-KLH/Alum: novel sequence vaccine: peptide SIPWSLERIT (SEQ ID No. 21) coupled to KLH and formulated with adjuvant Alum (also: coupled to KLH, site not given here)
levels of total cholesterol in comparison to the negative control group (Balb/c mice; FIGS. 5A and 5B, result in words): strongly reduce | % decrease of TC compared to the irrelevant (negative) control group (Balb/c mice; first experiment, FIG. 5B, mice immunized with Sequence-KLH/Alum): 35-40% | total cholesterol compared to the group injected with vaccine containing the original PCSK9 sequence SIPWNLERIT (Balb/c mice; result in words): significant reduction | total cholesterol compared to the group injected with vaccine containing the original PCSK9 sequence SIPWNLERIT (Balb/c mice; result in words, listed as SIPWSLERIT): significantly reduce

SVPWNLERIQ: vaccine containing novel sequence SVPWNLERIQ (SEQ ID No. 60), coupled to KLH and formulated as vaccine (also: coupled to KLH)
total cholesterol compared to the group injected with vaccine containing the original PCSK9 sequence SIPWNLERIT (Balb/c mice; result in words): significantly reduce

VIPWNLERIL: vaccine containing novel sequence VIPWNLERIL (SEQ ID No. 55), coupled to KLH and formulated as vaccine (also: coupled to KLH)
total cholesterol compared to the group injected with vaccine containing the original PCSK9 sequence SIPWNLERIT (Balb/c mice; result in words): significantly reduce
